Paper PMC7217877, “N-AS-triggered SPMs are direct regulators of microglia in a model of Alzheimer’s disease” (Nature Communications, 2020)
Where “and” joins values, the source holds several entries; their conditions need not be identical. Identical values can stand only once.

System: APP/PS1 mice
Experiment: Morris water maze test (Fig 6k-q)
Assay type: in vivo, mouse
Parameters: Morris water maze learning curve (Figure 6k) / Morris water maze learning curve (Figure 6k), group mean (평균) / Morris water maze, Non-Target quadrant (Figure 6l) / Morris water maze, Target quadrant (Figure 6l) / Morris water maze, A0 (Target quadrant) (Figure 6m) / Morris water maze, quadrant A1 (Figure 6m) / Morris water maze, quadrant A2 (Figure 6m) / Morris water maze, quadrant A3 (Figure 6m): unit not given here
Conditions: for Morris water maze learning curve (Figure 6k), group mean (평균): AD/N-AS group mean; for Morris water maze learning curve (Figure 6k): AD/N-AS individual animals
Procedure: Transgenic mouse lines over-expressing the hAPP695swe (APP) and presenilin-1M146V (PS1) mutations were originated from GlaxoSmithKline (Harlow, UK)[32] and maintained as described previously. We purchased 5×FAD mice from Jackson Labs (Stock number. 34840-JAX). Because APP/PS1 and 5xFAD mice show sex differences in disease progression, we used only male mice. To examine possible therapeutic effect of N-AS and aspirin in APP/PS1 mice, the N-AS (30 mg kg^−1, Sigma-Aldrich, 01912) was injected daily s.c. for 8 weeks to 7-months-old APP/PS1 mice until the age of 9 months, and aspirin (2 mg kg^−1, Sigma-Aldrich, A5376)[33] was administrated orally to 7-months-old APP/PS1 mice for 8 weeks. […] Block randomization method was used to allocate the animals to experimental groups. To eliminate the bias, we were blinded in experimental progress such as data collection and data analysis. Mice were housed at temperature of 22 °C and a 12 h day/12 h night cycle with free access to tap water and food pellets. All protocols were approved by the Kyungpook National University Institutional Animal Care and Use Committee. We performed behavioral studies to assess spatial learning and memory in the Morris water maze as previously described[11],[31]. Animals were given four trials per day for 10 days to learn the task. At day 11, animals were given a probe trial in which the platform was removed. Fear conditioning was conducted by previously described techniques. On the conditioning day, mice were individually placed into the conditioning chamber. After a 60 s exploratory period, a tone (10 kHz, 70 dB) was delivered for 10 s; this served as the conditioned stimulus (CS). The CS co-terminated with the unconditioned stimulus (US), a scrambled electrical footshock (0.3 mA, 1 s). The CS-US pairing was delivered twice at a 20 s intertrial interval. On day 2, each mouse was placed in the fear-conditioning chamber containing the same exact context, but with no administration of a CS or foot shock. Freezing was analyzed for 5 min. On day 3, a mouse was placed in a test chamber that was different from the conditioning chamber. After a 60 s exploratory period, the tone was presented for 60 s without the footshock. The rate of freezing response of mice was used to measure the fear memory. The open field test was used for locomotion and anxious behaviors as previously described. The open field box consisted of a square box. Each animal was placed in the box for 10 min. Overall activity in the box was measured, and the amount of time and distance traveled in the center arena was noted. After each trial, the test chambers were cleaned with a damp towel and distilled water followed by 70% alcohol. The light-dark test was used for assessing the anxiety-like behavior as previously described. One chamber was brightly illuminated, whereas the other chamber was dark. Mice were placed into the dark chamber and allowed to move freely between the two chambers with the door open for 10 min. The total number of transitions, latency to first enter the light chamber, distance traveled, and time spent in each chamber were recorded.

[1] = APP/PS1 + N-AS, individual animals

With CCCCCCCCCCCCC/C=C/[C@@H](O)[C@H](CO)NC(C)=O [N-AS, N-((2S,3R,E)-1,3-Dihydroxyoctadec-4-en-2-yl)acetamide] the “Morris water maze, A0 (Target quadrant) (Figure 6m)” value [1] was 14.5 and 35 and 17.5 and 31.5 and 19.5 and 29.5 and 37.5 and 7.5 and 9.5 and 20 and 10 and 18 and 24 and 10.5 and 30.5 and 43, the “Morris water maze, Non-Target quadrant (Figure 6l)” value [1] was 15.1667 and 8.333 and 14.1667 and 9.5 and 13.5 and 10.1667 and 7.5 and 17.5 and 16.8333 and 13.3333 and 16.6667 and 14 and 12 and 16.5 and 9.833 and 5.667 and the “Morris water maze, Target quadrant (Figure 6l)” value [1] was 14.5 and 35 and 17.5 and 31.5 and 19.5 and 29.5 and 37.5 and 7.5 and 9.5 and 20 and 10 and 18 and 24 and 10.5 and 30.5 and 43. For the same compound, the “Morris water maze, quadrant A1 (Figure 6m)” value [1] was 17.5 and 9 (2×) and 20 and 6.5 (2×) and 15.5 (2×) and 32 and 21 and 8.5 and 28 and 14 and 22 and 6 and 3, the “Morris water maze, quadrant A2 (Figure 6m)” value [1] was 16 and 9.5 and 14 and 9 and 21.5 and 19 and 2 and 2.5 and 10 and 15 (2×) and 13.5 and 11.5 and 21 and 19.5 and 7 and the “Morris water maze, quadrant A3 (Figure 6m)” value [1] was 12 and 6.5 (2×) and 8.5 and 13 and 10 and 5 (2×) and 18 and 19.5 and 16.5 and 7 (2×) and 14.5 and 9 and 4. For the same compound, the “memory formation, Morris water maze” value (N-AS vs vehicle APP/PS1) was “largely protected from this defect”, the “Morris water maze learning curve (Figure 6k), group mean (평균)” value (shortened to “Morris water maze learning curve … (평균)”) (day 1) was 42.2833 and the “Morris water maze learning curve (Figure 6k)” value (day 1) was 60 and 38.125 and 47.875 and 37.75 and 40.875 and 47.75 and 32.5 and 22.875 and 46 and 29.25 and 55.625. For the same compound, the “Morris water maze learning curve … (평균)” value (day 2) was 36.025, the “Morris water maze learning curve (Figure 6k)” value (day 2) was 40.25 and 39.875 and 60 and 24.625 and 34.625 and 51 and 16.875 and 15.75 and 46.75 and 19.875 and the “Morris water maze learning curve … (평균)” value (day 3) was 36.0583. For the same compound, the “Morris water maze learning curve (Figure 6k)” value (day 3) was 37.5 and 38.875 and 60 and 43.625 and 20.125 and 43.25 and 17.375 and 42 and 34.75 and 24.875, the “Morris water maze learning curve … (평균)” value (day 4) was 34.2583 and the “Morris water maze learning curve (Figure 6k)” value (day 4) was 37.125 and 35.25 and 60 and 49.75 and 25.875 and 12 and 37.5 and 8.375 and 36.125. The “Morris water maze learning curve … (평균)” value (day 5) was 34.3417, the “Morris water maze learning curve (Figure 6k)” value (day 5) was 43.125 and 17.125 and 55.5 and 30.25 and 26.375 and 55.25 and 23.875 and 38.5 and 13.5 and 31.125 and the “Morris water maze learning curve … (평균)” value (day 6) was 32.3333. For the same compound, the “Morris water maze learning curve (Figure 6k)” value (day 6) was 28.5 and 25 and 50.375 and 17.375 and 47.125 and 52.75 and 16.25 and 60 and 13.25 and 35.25, the “Morris water maze learning curve … (평균)” value (day 7) was 30.9667 and the “Morris water maze learning curve (Figure 6k)” value (day 7) was 47.875 and 26.5 and 46.5 and 22.75 and 19 and 33.75 and 27.5 and 50.25 and 12.375 and 43. For the same compound, the “Morris water maze learning curve … (평균)” value (day 8) was 23.3417, the “Morris water maze learning curve (Figure 6k)” value (day 8) was 37.125 and 17.75 and 27.875 and 22.625 and 16.625 and 24.375 and 5.5 and 25.125 and 14.875 and 41 and the “Morris water maze learning curve … (평균)” value (day 9) was 22.7083. For the same compound, the “Morris water maze learning curve (Figure 6k)” value (day 9) was 32.25 and 21.375 and 17.5 and 11.125 and 27.125 and 18.875 and 12.75 and 21.625 and 50.375 and 15.875, the “Morris water maze learning curve … (평균)” value (day 10) was 21.95 and the “Morris water maze learning curve (Figure 6k)” value (day 10) was 23.625 and 39.125 and 23.5 and 13 and 13.75 and 40.75 and 22.25 and 36.625 and 14.75 and 17.75.
